Laboratory results published in patent US20230357328A1, “SARS-CoV-2 PROTEIN-DERIVED PEPTIDE AND VACCINE CONTAINING SAME” (ONCOTHERAPY SCIENCE, INC., priority 2020, published 2023).
Entries after “also recorded” stand apart in the source; their conditions may differ. Like-named read-outs stand apart in the source and are kept apart here.

Tests used:
Type in all cases: cell-based, human
[1] = tested on: HLA-A*24:02-expressing target cells (TISI cells)
[2] = tested on: HLA-A*24:02-expressing target cells (TISI cells); remark: listed apart in the source
[3] = tested on: HLA-A*02:01-expressing target cells (T2 cells)
[4] = tested on: HLA-A*02:01-expressing target cells (T2 cells); remark: listed apart in the source
TISI cells = tested on: TISI cells
[5] = tested on: CD8-positive T cells in PBMCs of individuals not infected with SARS-CoV-2 (HLA-A*24:02-positive)
[6] = tested on: CD8-positive T cells in PBMCs of individuals who had recovered from COVID-19 (HLA-A*24:02-positive)
[7] = HLA-A*24:02-restricted, peptide-pulsed TISI cells vs TISI cells not pulsed
[8] = HLA-A*24:02-restricted CTL lines, peptide-pulsed TISI cells
[9] = HLA-A*02:01-restricted, peptide-pulsed T2 cells vs T2 cells not pulsed
[10] = HLA-A*02:01-restricted CTL lines, peptide-pulsed T2 cells
[11] = CTL clones from limiting dilution, TISI target cells

Sequence | Peptide-specific IFN-γ production (ELISPOT) [1, 7] | IFN-γ production by CTL lines (ELISA) [2, 8] | Peptide-specific IFN-γ production (ELISPOT) [3, 9] | Peptide-specific IFN-γ production by CTL clones (ELISA) (TISI cells; [11]) | Detection of tetramer-positive CD8-positive T cells recognizing the peptide [6] | also measured
AYANSVFNI [Peptide 1] | peptide-specific IFN-γ production was observed | produced IFN-γ in a peptide-specific manner | peptide-specific IFN-γ production was observed | showed IFN-γ production specific to | – | IFN-γ production by CTL lines (ELISA) [4, 10]: produced IFN-γ in a peptide-specific manner; Detection of tetramer-positive CD8-positive T cells recognizing the peptide [5]: detected
FTYASALWEI (an amino acid sequence derived from ORF1ab polyprotein of SARS-CoV-2) [Peptide 10, SARS-CoV-2 ORF1ab-derived 10mer peptide, position 4089] | peptide-specific IFN-γ production was observed | produced IFN-γ in a peptide-specific manner | – | showed IFN-γ production specific to | detected | –
LWLLWPVTL [Peptide 13] | – | – | – | – | detected | Peptide-specific IFN-γ production (ELISPOT) [1]: peptide-specific IFN-γ production was observed; IFN-γ production by CTL lines (ELISA) [2]: produced IFN-γ in a peptide-specific manner; Peptide-specific IFN-γ production (ELISPOT) [3]: peptide-specific IFN-γ production was observed; IFN-γ production by CTL lines (ELISA) [4]: produced IFN-γ in a peptide-specific manner; Detection of tetramer-positive CD8-positive T cells recognizing the peptide [5]: detected
PFAMQMAYRF (an amino acid sequence derived from surface glycoprotein of SARS-CoV-2) [Peptide 5, SARS-CoV-2 S protein-derived 10mer peptide, position 897] | peptide-specific IFN-γ production was observed | produced IFN-γ in a peptide-specific manner | no peptide-specific IFN-γ production was observed | – | detected | –
RYFKYWDQTY [Peptide 12] | peptide-specific IFN-γ production was observed | – | peptide-specific IFN-γ production was observed | – | – | –
RYKLEGYAF [Peptide 9] | – | – | – | – | detected | Peptide-specific IFN-γ production (ELISPOT) [1]: peptide-specific IFN-γ production was observed; IFN-γ production by CTL lines (ELISA) [2]: produced IFN-γ in a peptide-specific manner; Peptide-specific IFN-γ production (ELISPOT) [3]: no peptide-specific IFN-γ production was observed; Peptide-specific IFN-γ production by CTL clones (ELISA) (TISI cells): showed IFN-γ production specific to
SYSLFDMSKF [Peptide 11] | peptide-specific IFN-γ production was observed | – | no peptide-specific IFN-γ production was observed | – | – | –
TAYANSVFNI (an amino acid sequence derived from ORF1ab polyprotein of SARS-CoV-2) [Peptide 2, SARS-CoV-2 ORF1ab-derived 10mer peptide, position 5079] | peptide-specific IFN-γ production was observed | produced IFN-γ in a peptide-specific manner | peptide-specific IFN-γ production was observed | showed IFN-γ production specific to | – | IFN-γ production by CTL lines (ELISA) [4, 10]: produced IFN-γ in a peptide-specific manner
TYASALWEI [Peptide 4] | – | – | – | – | detected | Peptide-specific IFN-γ production (ELISPOT) [1]: peptide-specific IFN-γ production was observed; IFN-γ production by CTL lines (ELISA) [2]: produced IFN-γ in a peptide-specific manner; Peptide-specific IFN-γ production (ELISPOT) [3]: peptide-specific IFN-γ production was observed
VFMSEAKCW (an amino acid sequence derived from ORF1ab polyprotein of SARS-CoV-2) [Peptide 3, SARS-CoV-2 ORF1ab-derived 9mer peptide, position 5184] | peptide-specific IFN-γ production was observed | – | no peptide-specific IFN-γ production was observed | – | – | –
YAYLRKHFSM (an amino acid sequence derived from ORF1ab polyprotein of SARS-CoV-2) [Peptide 15, SARS-CoV-2 ORF1ab-derived 10mer peptide, position 5138] | peptide-specific IFN-γ production was observed | – | no peptide-specific IFN-γ production was observed | – | – | –
YDYLVSTQEF (an amino acid sequence derived from ORF1ab polyprotein of SARS-CoV-2) [Peptide 6, SARS-CoV-2 ORF1ab-derived 10mer peptide, position 3811] | peptide-specific IFN-γ production was not found; also recorded: no peptide-specific IFN-γ production was observed | – | – | – | – | –
YYSQLMCQPI (an amino acid sequence derived from ORF1ab polyprotein of SARS-CoV-2) [Peptide 7, SARS-CoV-2 ORF1ab-derived 10mer peptide, position 2560] | peptide-specific IFN-γ production was observed | produced IFN-γ in a peptide-specific manner | peptide-specific IFN-γ production was observed | showed IFN-γ production specific to | – | Detection of tetramer-positive CD8-positive T cells recognizing the peptide [5]: detected
